# Reference: EPA's ToxRefDB 2
# What was measured:
# [1] = system: rat; conditions: Subchronic oral toxicity in rodents, sprague dawley, Feed, dose end: 13 week, group: systemic
# [2] = system: rat; conditions: Combined chronic toxicity/carcinogenicity, sprague dawley, Oral, Feed, dose end: 104 week, group: systemic
# [3] = system: mouse; conditions: Carcinogenicity, other, Oral, Feed, dose end: 104 week, group: systemic
# [4] = system: dog; conditions: Subchronic oral toxicity in nonrodent, beagle, Capsule, dose end: 93 day, group: systemic
# [5] = system: dog; conditions: Chronic toxicity, beagle, Oral, Capsule, dose end: 52 week, group: systemic
# [6] = system: mouse; conditions: Sub-acute repeat dose toxicity; b6c3f1; Oral; Gavage/Intubation; dose end: 16 day; group: systemic; systemic / pathology gross / stomach / erosion + systemic / pathology gross / stomach / ulcer + systemic / pathology microscopic / stomach…
# [7] = system: mouse; conditions: Carcinogenicity; b6c3f1; Oral; Gavage/Intubation; dose end: 103 week; group: systemic; systemic / pathology microscopic / stomach / acanthosis + systemic / pathology microscopic / stomach / hyperkeratosis + systemic / pathology…
# [8] = system: rat; conditions: Subchronic dermal toxicity, sprague dawley, Topical, dose end: 13 week, group: systemic, systemic / pathology microscopic / liver / inflammation + systemic / pathology microscopic / liver / necrosis + systemic / in life …
# [9] = system: rat; conditions: Carcinogenicity, fischer, Oral, Gavage/Intubation, dose end: 103 week, group: systemic
# [10] = system: rat; conditions: Subchronic oral toxicity in rodents, fischer, Gavage/Intubation, dose end: 13 week, group: systemic
# [11] = system: mouse; conditions: Subchronic oral toxicity in rodents, b6c3f1, Gavage/Intubation, dose end: 13 week, group: systemic
# [12] = system: rat; conditions: Prenatal developmental toxicity study, sprague dawley, Oral, Gavage/Intubation, dose end: 15 GD
# [13] = system: rat; conditions: Sub-acute repeat dose toxicity; fischer; Oral; Gavage/Intubation; dose end: 16 day; group: systemic; systemic / pathology microscopic / stomach / hyperkeratosis + systemic / pathology microscopic / stomach / hyperplasia + systemic / …
# [14] = system: rat; conditions: Carcinogenicity, fischer, Oral, Feed, dose end: 103 week, group: systemic
# [15] = system: rat; conditions: Subchronic oral toxicity in rodents, fischer, Feed, dose end: 13 week, group: systemic
# [16] = system: mouse; conditions: Carcinogenicity; b6c3f1; Oral; Feed; dose end: 103 week; group: systemic; systemic / pathology gross / urinary bladder / stones + systemic / pathology microscopic / urinary bladder / hyperplasia + systemic / …
# [17] = system: rat; conditions: Subchronic oral toxicity in rodents, fischer, Feed, dose end: 13 week, group: systemic, systemic / in life observation / body weight / body weight gain + systemic / pathology gross / urinary bladder / stones
# [18] = system: mouse; conditions: Subchronic oral toxicity in rodents, b6c3f1, Feed, dose end: 13 week, group: systemic
# [19] = system: rat; conditions: Subchronic oral toxicity in rodents, fischer, Feed, dose end: 13 week, group: systemic; remark: listed apart in the source
# [20] = systemic / in life observation / body weight / body weight + systemic / in life observation / clinical signs / distended abdomens + systemic…
# [21] = systemic / organ weight / kidney / relative to body weight
# [22] = systemic / in life observation / body weight / body weight + systemic / in life observation / food consumption / food consumption + systemic…
# [23] = systemic / in life observation / body weight / body weight
# [24] = systemic / in life observation / body weight / body weight + systemic / organ weight / kidney / absolute + systemic / organ weight / liver…
# [25] = systemic / clinical chemistry / albumin / albumin + systemic / clinical chemistry / alkaline phosphatase (alp/alk) / alkaline phosphatase (…
# [26] = systemic / clinical chemistry / cholesterol / cholesterol
# [27] = systemic / clinical chemistry / alkaline phosphatase (alp/alk) / alkaline phosphatase (alp/alk) + systemic / clinical chemistry / …
# [28] = systemic / pathology microscopic / stomach / acanthosis + systemic / pathology microscopic / stomach / hyperplasia + systemic / pathology …
# [29] = systemic / pathology microscopic / stomach / acanthosis + systemic / pathology microscopic / stomach / hyperkeratosis
# [30] = systemic / pathology microscopic / stomach / acanthosis + systemic / pathology microscopic / stomach / hyperkeratosis + systemic / in life …
# [31] = systemic / organ weight / kidney / relative to body weight + systemic / organ weight / liver / relative to body weight
# [32] = systemic / organ weight / kidney / relative to body weight + systemic / organ weight / liver / relative to body weight + systemic / …
# [33] = group: developmental, systemic / in life observation / body weight / fetal weight
# [34] = group: maternal, systemic / in life observation / body weight / body weight gain + systemic / in life observation / food consumption / food consumption + …
# [35] = systemic / in life observation / body weight / body weight gain + systemic / in life observation / food consumption / food consumption + …
# [36] = systemic / pathology gross / urinary bladder / stones
# [37] = systemic / in life observation / body weight / body weight gain
# [38] = systemic / in life observation / body weight / body weight gain + systemic / pathology gross / urinary bladder / stones + systemic / …
# [39] = systemic / pathology gross / urinary bladder / stones + systemic / in life observation / body weight / body weight gain + systemic / …
compound,measurement,setting,value
CO/C=C(/C(=O)OC)c1ccccc1Oc1cc(Oc2ccccc2C#N)ncn1 [Azoxystrobin],LOAEL,[1]; [20],211 mg/kg/day
same,NOAEL,[1]; [20],20.4 mg/kg/day
same,LEL,[1]; [21],22.4 mg/kg/day
same,NEL,[1]; [21],< 22.4 mg/kg/day
same,NEL,[2]; systemic / clinical chemistry / aspartate aminotransferase (ast/sgot) / aspartate aminotransferase (ast/sgot) + systemic / clinical …,117 mg/kg/day
same,LOAEL,[2]; [22],82.4 mg/kg/day
same,NOAEL,[2]; [22],18.2 mg/kg/day
same,LOAEL,[3]; [23],272 mg/kg/day
same,LEL,[3]; [24],272 mg/kg/day
same,NEL,[3]; [24],37.5 mg/kg/day
same,NOAEL,[3]; [24],37.5 mg/kg/day
same,LOAEL,[4]; [25],250 mg/kg/day
same,NOAEL,[4]; [25],50 mg/kg/day
same,LEL,[4]; [26],10 mg/kg/day
same,NEL,[4]; [26],< 10 mg/kg/day
same,LOAEL,[5]; [27],200 mg/kg/day
same,NEL,[5]; [27],3 mg/kg/day
same,NOAEL,[5]; [27],25 mg/kg/day
same,LEL,[5]; systemic / organ weight / liver / absolute + systemic / clinical chemistry / cholesterol / cholesterol + systemic / clinical chemistry / …,25 mg/kg/day
CC(=O)OC1CC(C)OC(C)O1 (configuration not stated) [Dimethoxane],LEL,[6],500 mg/kg/day
same,LOAEL,[6],500 mg/kg/day
same,NEL,[6],250 mg/kg/day
same,NOAEL,[6],250 mg/kg/day
same,LEL,[7],250 mg/kg/day
same,LOAEL,[7],250 mg/kg/day
same,NEL,[7],< 250 mg/kg/day
same,NOAEL,[7],< 250 mg/kg/day
same,LEL,[8],300 mg/kg/day
same,LOAEL,[8],300 mg/kg/day
same,NEL,[8],100 mg/kg/day
same,NOAEL,[8],100 mg/kg/day
same,LEL,[9]; systemic / pathology microscopic / stomach / acanthosis + systemic / pathology microscopic / stomach / hyperkeratosis + systemic / pathology…,125 mg/kg/day
same,LOAEL,[9]; [28],> 250 mg/kg/day
same,NOAEL,[9]; [28],≥ 250 mg/kg/day
same,LEL,[10]; [29],62 mg/kg/day
same,LOAEL,[10]; [29],250 mg/kg/day
same,NEL,[10]; [30],31 mg/kg/day
same,NOAEL,[10]; [30],125 mg/kg/day
same,LEL,[11]; [31],31 mg/kg/day
same,NEL,[11]; [31],< 31 mg/kg/day
same,LOAEL,[11]; [32],> 500 mg/kg/day
same,NOAEL,[11]; [32],≥ 500 mg/kg/day
same,LEL,[12]; [33],500 mg/kg/day
same,LOAEL,[12]; [33],500 mg/kg/day
same,NEL,[12]; [33],250 mg/kg/day
same,NOAEL,[12]; [33],250 mg/kg/day
same,LOAEL,"[12]; group: maternal, systemic / in life observation / body weight / body weight gain + systemic / in life observation / food consumption / food consumption",250 mg/kg/day
same,LEL,[12]; [34],250 mg/kg/day
same,NEL,[12]; [34],125 mg/kg/day
same,NOAEL,[12]; [34],125 mg/kg/day
same,LEL,[13],125 mg/kg/day
same,LOAEL,[13],250 mg/kg/day
same,NEL,[13],< 125 mg/kg/day
same,NOAEL,[13],125 mg/kg/day
Nc1nc(N)nc(N)n1 [Melamine],LEL,[14]; [23],112 mg/kg/day
same,NEL,[14]; [23],< 112 mg/kg/day
same,LOAEL,[14]; systemic / pathology microscopic / kidney / inflammation + systemic / pathology gross / urinary bladder / stones,225 mg/kg/day
same,LOAEL,[15]; [35],> 900 mg/kg/day
same,NOAEL,[15]; [35],≥ 900 mg/kg/day
same,LEL,[15]; [36],300 mg/kg/day
same,NEL,[15]; [36],< 300 mg/kg/day
same,LEL,[16],338 mg/kg/day
same,LOAEL,[16],338 mg/kg/day
same,NEL,[16],< 338 mg/kg/day
same,NOAEL,[16],< 338 mg/kg/day
same,LEL,[17],875 mg/kg/day
same,LOAEL,[17],> 875 mg/kg/day
same,NEL,[17],500 mg/kg/day
same,NOAEL,[17],≥ 875 mg/kg/day
same,LEL,[18]; [37],900 mg/kg/day
same,NEL,[18]; [37],< 900 mg/kg/day
same,LOAEL,[18]; [38],> 2700 mg/kg/day
same,NOAEL,[18]; [38],≥ 2700 mg/kg/day
same,LEL,[19]; [36],75 mg/kg/day
same,LOAEL,[19]; [39],> 600 mg/kg/day
same,NEL,[19]; [39],37.5 mg/kg/day
same,NOAEL,[19]; [39],≥ 600 mg/kg/day
